Source: patent US20050232915A1, “Matrix metalloproteinase inhibitors in combination with hypothermia and/or radiotherapy for the treatment of cancer” (priority 2002, published 2005)

What was measured:
MMP-2 [1] = target: T1, MMP-2 (Homo sapiens, UniProt P08253); test: Gelatin zymography of conditioned medium from Panc-1 cells; type: cell-based; conditions: 5 μM, Panc-1 conditioned medium
T1 construct: The conditioned medium either from non-irradiated or irradiated Panc-1 cells is concentrated to 10-fold; endogenous in cells; host or cells: Panc-1 cells (conditioned medium)
T1 sequence (P08253 110-660): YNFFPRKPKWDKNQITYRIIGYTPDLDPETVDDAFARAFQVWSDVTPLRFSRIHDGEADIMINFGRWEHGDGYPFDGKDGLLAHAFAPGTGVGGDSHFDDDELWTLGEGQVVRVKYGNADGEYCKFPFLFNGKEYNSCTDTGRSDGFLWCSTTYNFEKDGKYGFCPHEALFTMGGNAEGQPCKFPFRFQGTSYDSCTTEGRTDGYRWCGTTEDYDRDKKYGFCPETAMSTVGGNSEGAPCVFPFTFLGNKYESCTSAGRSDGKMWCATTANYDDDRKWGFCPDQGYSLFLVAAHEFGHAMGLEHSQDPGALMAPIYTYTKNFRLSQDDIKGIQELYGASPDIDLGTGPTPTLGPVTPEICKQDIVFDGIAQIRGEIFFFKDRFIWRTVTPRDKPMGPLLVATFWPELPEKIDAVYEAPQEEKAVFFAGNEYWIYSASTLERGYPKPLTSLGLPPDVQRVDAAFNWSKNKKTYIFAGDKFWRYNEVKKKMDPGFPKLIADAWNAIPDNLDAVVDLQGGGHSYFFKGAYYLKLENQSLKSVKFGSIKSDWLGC
Method: (§1) The conditioned medium either from non-irradiated or irradiated Panc-1 cells is concentrated to 10-fold with Centricon-10 (Amico, Beverly, Mass., USA). Samples are added to each lane and subjected to 10% SDS-polyacrylamide gel electrophoresis, using 10% polyacrylamide gel containing 1 mg/ml gelatin. After electrophoresis, the gel is washed in 2.5% Triton X-100, and incubated in 50 mM Tris-HCl buffer (pH8.0) containing 0.5 mM CaCl2 and 1 mM ZnCl2 for 20 hr at 37° C. The gel is stained with 1% Coomassie Brilliant Blue R-250 and destained with destaining buffer (5% acetic acid and 10% methanol).
(§2) To determine the role of gelatinases in the radiation-induced changes in invasive potential, we examine MMPs activity in Panc-1 cells before and after irradiation. Cells are incubated 24 h after irradiation and the conditioned medium is subjected to the gelatin zymography. Untreated Panc-1 cells secrete both latent and active forms of MMP-2 (72 kDa and 62 kDa gelatinases).
(§3) Finally, we test whether a synthetic MMP inhibitor, N-hydroxy-2(R)-[[4 methoxyphenylsulfonyl](3-picolyl)amino]-3-methyl-butaneamide hydrochloride) monohydrate, could prevent the radiation-enhanced invasiveness. N-hydroxy-2(R)-[[4-methoxyphenylsulfonyl](3-picolyl)amino]-3-methyl-butaneamide hydrochloride) monohydrate is added to invasion chambers at final concentrations of 1, 5, and 10 μm just before irradiation.

MMP-2 [2] = target: T2, MMP-2 (Homo sapiens, UniProt P08253); test: as above; type: cell-based; conditions: 5 μM, Panc-1 conditioned medium; remark: listed apart in the source
T2 construct: The conditioned medium either from non-irradiated or irradiated Panc-1 cells is concentrated to 10-fold; endogenous in cells; host or cells: Panc-1 cells (conditioned medium)
T2 sequence (P08253 30-660): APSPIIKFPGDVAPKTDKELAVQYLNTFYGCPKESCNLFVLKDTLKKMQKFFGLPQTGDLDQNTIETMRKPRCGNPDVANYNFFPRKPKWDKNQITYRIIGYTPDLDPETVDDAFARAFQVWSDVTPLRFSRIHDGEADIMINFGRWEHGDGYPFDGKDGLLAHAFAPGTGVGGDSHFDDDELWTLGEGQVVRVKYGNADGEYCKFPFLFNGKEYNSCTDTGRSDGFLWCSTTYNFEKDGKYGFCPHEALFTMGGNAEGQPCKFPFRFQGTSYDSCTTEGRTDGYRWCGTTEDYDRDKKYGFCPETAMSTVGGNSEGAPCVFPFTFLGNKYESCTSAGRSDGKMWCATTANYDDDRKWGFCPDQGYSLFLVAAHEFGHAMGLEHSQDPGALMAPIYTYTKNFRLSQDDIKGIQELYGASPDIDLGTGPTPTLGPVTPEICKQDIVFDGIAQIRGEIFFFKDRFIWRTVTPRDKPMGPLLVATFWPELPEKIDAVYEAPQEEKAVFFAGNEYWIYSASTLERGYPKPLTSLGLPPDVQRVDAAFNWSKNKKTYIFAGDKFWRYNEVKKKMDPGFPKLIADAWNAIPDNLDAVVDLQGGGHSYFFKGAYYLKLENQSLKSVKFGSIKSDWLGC
Method: as §1, §2, §3

Panc-1 cells [3] = test: Growth and viability of Panc-1 cells (cell proliferation assay); type: cell-based, human; conditions: concentrations up to 10 μM
Method: Cell proliferation is evaluated by measuring the fluorescence intensity of propidium iodide (PI) as described previously by Zhang et al. (Cancer Lett., 142: 129-137, 1999) with minor modifications. Briefly, cells are seeded in 24-well plates at a density of 3×10^4 cells per well. After overnight cultivation, cells are irradiated and cultured for 4 days. PI (30 μM) and digitonin ([…]) are added to each well to label all nuclei of the cells with PI. Fluorescence intensity corresponding to total cells in each well is measured by a multi-well plate-reader, CYTOFLUOR II (PerSeptive Biosystems Inc., Framingham, Mass., USA) with 530-nm excitation and 645-nm emission filters. The cell proliferation rate is calculated as the proportion of fluorescence intensity of each well at the time point indicated in the text to that at the day of irradiation.
as §3

Panc-1 cells [4] = test: Matrigel invasion assay after irradiation; type: cell-based, human; conditions: Panc-1, irradiation at 5 Gy, inhibitor at 5 and 10 μM added just before irradiation, 24 h
Method: The cells are irradiated with doses of 3, 5, or 10 Gy at room temperature using a ^137Cs source (Gamma Cell 40, Atomic Energy of Canada Ltd., Ontario, Canada) delivering 1.0 Gy/min.
Invasion of pancreatic cancer cells is measured by the invasion of cells through Matrigel-coated transwell inserts (Becton Dickinson, Franklin Lakes, N.J., USA) (Sato et al and Maehara et al ibid).
Briefly, transwell inserts with 8 μm pore are coated with Matrigel (40 μg/well, Becton Dickinson, Bedford, Mass., USA). Five hundred μl of cell suspension (1×10^5/ml) are added to the upper chambers. Same media of 750 μl are placed in the lower wells. Thereafter, the cells are irradiated and incubated for 24 h. Cells that have invaded to lower surface of the Matrigel-coated membrane are fixed with 70% ethanol, stained with H&E, and counted in five random fields under a light microscope.
as §3

active type MMP-2 (gelatin zymography) (MMP-2 [1]): markedly decreases
enzymatic activity of latent type MMP-2 (gelatin zymography) (MMP-2 [2]): without affecting
SMILES: COc1ccc(S(=O)(=O)N(Cc2cccnc2)[C@@H](C(=O)NO)C(C)C)cc1.Cl.O [N-hydroxy-2(R)-[[4-methoxyphenylsulfonyl](3-picolyl)amino]-3-methyl-butaneamide hydrochloride)monohydrate]
growth and viability of Panc-1 cells (Panc-1 cells [3]): does not affect the growth and viability
increase in invaded cells after irradiation (radiation-enhanced invasion) (Panc-1 cells [4]): significantly block the increase in invaded cells after irradiation
